pIC50: −log10 of the molar value.
What was measured:
Assay in all cases: Cell proliferation assay (CellTiter-Glo)
Type in all cases: cell-based
KM12 (TPM3-TRKA) = details: Homo sapiens, anti-cell proliferation, 72 hours
Method in brief: (§1)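 Cells seeded 24 h, then exposed to compounds for 72 h at 37° C., 5% CO2. Proliferation read by CellTiter-Glo luminescent ATP detection; IC50 from dose-response fits.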

KG-1 cell (OP2-FGFR1) = details: Homo sapiens, anti-cell proliferation, 72 hours
Method in brief: as §1

BaF3 EML4-ALK = biological target: T1, BaF3 EML4-ALK (Homo sapiens, UniProt Q9UM73); details: anti-cell proliferation, 72 hours
T1 construct: The EML4-ALK gene (variant 1) was synthesized at GenScript and cloned into pCDH-CMV-MCS-EF1-Puro plasmid (System Biosciences, Inc); fused on or other part: EML4 N-terminal part (variant 1: exons 1-13, with the coiled-coil that oligomerises the fusion) fused to the intracellular part of ALK, which contains the kinase domain; Q9HC35 (Echinoderm microtubule-associated protein-like 4)
Method in brief: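 Ba/F3 cells were lentivirally transduced with EML4-ALK variant 1 and selected for puromycin resistance and IL-3-independent growth. Proliferation was measured by CellTiter-Glo ATP luminescence to give IC50.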

T1 sequence (Q9UM73 whole entry, stated change not applied, the tested form may be a part): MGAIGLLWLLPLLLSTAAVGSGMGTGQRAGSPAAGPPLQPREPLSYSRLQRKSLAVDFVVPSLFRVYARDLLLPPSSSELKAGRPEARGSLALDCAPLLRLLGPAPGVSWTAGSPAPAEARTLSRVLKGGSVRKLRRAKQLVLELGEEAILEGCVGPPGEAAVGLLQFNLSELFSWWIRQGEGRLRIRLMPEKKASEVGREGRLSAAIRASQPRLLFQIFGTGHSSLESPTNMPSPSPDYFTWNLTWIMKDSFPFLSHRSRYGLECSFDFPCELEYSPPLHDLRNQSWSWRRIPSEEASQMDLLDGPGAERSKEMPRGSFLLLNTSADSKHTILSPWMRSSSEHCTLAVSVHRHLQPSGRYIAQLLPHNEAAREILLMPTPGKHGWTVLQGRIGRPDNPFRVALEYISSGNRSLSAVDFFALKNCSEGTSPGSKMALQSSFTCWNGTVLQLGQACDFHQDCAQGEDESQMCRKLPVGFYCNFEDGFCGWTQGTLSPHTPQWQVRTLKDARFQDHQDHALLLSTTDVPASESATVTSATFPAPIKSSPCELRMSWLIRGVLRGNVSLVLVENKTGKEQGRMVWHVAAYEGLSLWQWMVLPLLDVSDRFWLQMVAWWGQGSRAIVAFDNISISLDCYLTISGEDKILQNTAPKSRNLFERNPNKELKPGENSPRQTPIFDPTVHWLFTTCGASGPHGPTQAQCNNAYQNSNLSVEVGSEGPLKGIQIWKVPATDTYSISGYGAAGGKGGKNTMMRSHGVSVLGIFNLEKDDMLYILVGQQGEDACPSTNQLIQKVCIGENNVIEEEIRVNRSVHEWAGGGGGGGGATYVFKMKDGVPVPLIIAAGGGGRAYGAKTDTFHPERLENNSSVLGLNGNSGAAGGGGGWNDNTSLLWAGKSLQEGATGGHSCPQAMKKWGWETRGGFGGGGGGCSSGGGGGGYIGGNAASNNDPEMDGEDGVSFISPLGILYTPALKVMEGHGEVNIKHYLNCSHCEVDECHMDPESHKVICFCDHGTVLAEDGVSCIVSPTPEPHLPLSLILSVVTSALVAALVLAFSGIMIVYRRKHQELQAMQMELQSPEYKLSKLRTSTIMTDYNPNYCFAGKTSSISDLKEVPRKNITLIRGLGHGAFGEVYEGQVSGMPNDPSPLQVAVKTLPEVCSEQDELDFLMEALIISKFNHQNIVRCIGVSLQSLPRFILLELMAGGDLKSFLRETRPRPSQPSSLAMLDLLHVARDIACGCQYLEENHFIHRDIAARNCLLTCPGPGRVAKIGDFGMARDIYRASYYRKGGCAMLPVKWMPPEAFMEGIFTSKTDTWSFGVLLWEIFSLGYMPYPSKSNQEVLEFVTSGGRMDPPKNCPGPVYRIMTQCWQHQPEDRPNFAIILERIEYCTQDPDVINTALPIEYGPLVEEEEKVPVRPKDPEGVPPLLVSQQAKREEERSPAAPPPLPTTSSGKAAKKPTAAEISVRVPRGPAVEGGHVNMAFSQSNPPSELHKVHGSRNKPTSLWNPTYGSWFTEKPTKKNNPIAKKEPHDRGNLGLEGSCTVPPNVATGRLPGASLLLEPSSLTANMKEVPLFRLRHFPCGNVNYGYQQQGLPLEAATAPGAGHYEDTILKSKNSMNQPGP

Row | SMILES | pIC50 (BaF3 EML4-ALK) | pIC50 (KM12 (TPM3-TRKA)) | pIC50 (KG-1 cell (OP2-FGFR1))
1 | C[C@@H]1COc2cn3ncc4c3nc2N1Cc1cc(F)cnc1OCC(F)(F)CNC4=O [Compound 79, (16R)-7,7,12-trifluoro-16-methyl-5,6,7,8,16,17-hexahydro-4H,14H-1,19-(metheno)[1,4]oxazino[4,3-e]pyrazolo[3,4-h]pyrido[2,3-b][1,5,7,11]oxatriazacyclotetra-decin-4-one] | 7.50 | > 9.70 | 8.00
2 | C[C@@H]1COc2cn3ncc4c3nc2N1Cc1cc(F)cnc1OC[C@H](F)CNC4=O [Compound 80, (7R,16R)-7,12-difluoro-16-methyl-5,6,7,8,16,17-hexahydro-4H,14H-1,19-(metheno)[1,4]-oxazino[4,3-e]pyrazolo[3,4-h]pyrido[2,3-b][1,5,7,11]oxa-triazacyclotetradecin-4-one] | 6.87 | > 9.70 | 7.35
3 | C[C@@H]1COc2cn3ncc4c3nc2N1Cc1cc(F)cnc1O[C@@H]1CC[C@@H](C1)NC4=O [Compound 86, (6S,9R,17R)-13-fluoro-17-methyl-6,7,8,9,17,18-hexahydro-15H-6,9-methano-1,20-(metheno)[1,4]-oxazino[4,3-e]pyrazolo[3,4-h]-pyrido[2,3-b][1,5,7,11]oxatriaza-cyclopentadecin-4(5H)-one] | 8.14 | > 9.70 | 8.57
4 | C[C@@H]1COc2cn3ncc4c3nc2N1Cc1cc(F)cnc1O[C@H]1CC[C@H](C1)NC4=O [Compound 87, (6R,9S,17R)-13-fluoro-17-methyl-6,7,8,9,17,18-hexahydro-15H-6,9-methano-1,20-(metheno)[1,4]-oxazino[4,3-e]pyrazolo[3,4-h]-pyrido[2,3-b][1,5,7,11]oxatriaza-cyclopentadecin-4(5H)-one] | 7.82 | > 9.70 | 7.76
5 | CO[C@@H]1COc2cn3ncc4c3nc2N(Cc2cc(F)cnc2O[C@@H](C)CNC4=O)C1 [Compound 91, (4S,13S)-9-fluoro-4-methoxy-13-methyl-4,5,14,15-tetrahydro-3H,7H-19,1-(metheno)[1,4]oxazepino[3,4-i]pyrazolo[4,3-f]pyrido[3,2-1][1,4,8,10]oxatriazacyclotridecin-16(13H)-one] | 6.63 | 7.19 | 6.00
6 | C[C@H]1CNC(=O)c2cnn3cc4c(nc23)N(Cc2cc(F)cnc2O1)C[C@@H](F)CO4 [Compound 93, (4R,13S)-4,9-difluoro-13-methyl-4,5,14,15-tetrahydro-3H,7H-19,1-(metheno)[1,4]oxazepino[3,4-i]-pyrazolo[4,3-f]pyrido[3,2-l] [1,4,8,10]oxatriazacyclotridecin-16(13H)-one] | < 5.00 | 6.72 | < 5.00
7 | C[C@@H]1COc2cn3ncc4c3nc2N1Cc1cc(F)cnc1OCCC1(CCC1)NC4=O [Compound 96, (16′R)-12′-fluoro-16′-methyl-4′H,5′H,7′H,8′H,14′H,16′H,17′H-spiro[cyclobutane-1,6′-[9,18]-dioxa[1,2,5,10,15,20]hexaaza-[1,19](metheno)[1,4]oxazino-[4,3-e]pyrazolo[3,4-h]pyrido[2,3-b][1,5,7,11]oxatriazacyclotetra-decin]-4′-one] | 6.46 | > 9.70 | 6.30

Now from value to compound, other results behind:

Row | pIC50 (BaF3 EML4-ALK) | SMILES | pIC50 (KM12 (TPM3-TRKA)) | pIC50 (KG-1 cell (OP2-FGFR1))
8 | 6.18 | C[C@@H]1COc2cn3ncc4c3nc2N1Cc1cc(F)cnc1OC[C@H](CO)NC4=O [Compound 82, (4R,13S)-8-fluoro-13-(hydroxy-methyl)-4-methyl-3,4,13,14-tetrahydro-6H-18,1-(metheno)-[1,4]oxazino[3,4-i]pyrazolo[4,3-f]pyrido[3,2-l][1,4,8,10]oxatriaza-cyclotridecin-15(12H)-one] | > 9.70 | 7.43
9 | 6.86 | C[C@@H]1COc2ncc(F)cc2[C@@H](C)N2c3nc4c(cnn4cc3OC[C@H]2C)C(=O)N1 [Compound 83, (4R,6R,13R)-8-fluoro-4,6,13-trimethyl-3,4,13,14-tetrahydro-6H-18,1-(metheno)[1,4]oxazino[3,4-i]pyrazolo[4,3-f]pyrido[3,2-l][1,4,8,10]oxatriazacyclotridecin-15(12H)-one] | > 9.70 | 7.52
10 | 6.44 | C[C@@H]1COc2ncc(F)cc2[C@H](C)N2c3nc4c(cnn4cc3OC[C@H]2C)C(=O)N1 [Compound 84, (4R,6S,13R)-8-fluoro-4,6,13-trimethyl-3,4,13,14-tetrahydro-6H-18,1-(metheno)[1,4]oxazino[3,4-i]pyrazolo[4,3-f]pyrido[3,2-l][1,4,8,10]oxatriazacyclotridecin-15(12H)-one] | > 9.70 | 6.89
11 | 7.90 | C[C@@H]1COc2cn3ncc4c3nc2N1Cc1cc(F)cnc1OC[C@@H](C(F)(F)F)NC4=O [Compound 85, (4R,13S)-8-fluoro-4-methyl-13-(trifluoromethyl)-3,4,13,14-tetrahydro-6H-18,1-(metheno)-[1,4]oxazino[3,4-i]pyrazolo[4,3-f]pyridol[3,2-l][1,4,8,10]oxatriaza-cyclotridecin-15(12H)-one] | > 9.70 | 7.76
12 | 5.30 | C[C@@H]1COc2ncc(F)cc2CN2C[C@@H](O)COc3cn4ncc(c4nc32)C(=O)N1 [Compound 88, (4R,14R)-9-fluoro-4-hydroxy-14-methyl-4,5,14,15-tetrahydro-3H,7H-19,1-(metheno)[1,4]-oxazepino[3,4-i]pyrazolo[4,3-f]pyrido[3,2-l][1,4,8,10]oxatriaza-cyclotridecin-16(13H)-one] | 8.51 | 5.52
13 | 5.72 | C[C@@H]1COc2cn3ncc4c3nc2N1Cc1cc(F)cnc1OC[C@H](O)CNC4=O [Compound 89, (7R,16R)-12-fluoro-7-hydroxy-16-methyl-5,6,7,8,16,17-hexa-hydro-4H,14H-1,19-(metheno)-[1,4]oxazino[4,3-e]pyrazolo[3,4-h]pyrido[2,3-b][1,5,7,11]oxatriaza-cyclotetradecin-4-one] | > 9.70 | 6.40
14 | 5.70 | COC[C@H]1COc2ncc(F)cc2CN2c3nc4c(cnn4cc3OC[C@H]2C)C(=O)N1 [Compound 92, (4R,13S)-8-fluoro-13-(methoxy-methyl)-4-methyl-3,4,13,14-tetrahydro-6H-18,1-(metheno)-[1,4]oxazino[3,4-i]pyrazolo[4,3-f]pyrido[3,2-l][1,4,8,10]oxatriaza-cyclotridecin-15(12H)-one] | 8.24 | 6.48
15 | 7.78 | C[C@@H]1COc2cn3ncc4c3nc2N1Cc1cc(F)cnc1O[C@H]1C[C@H](C1)NC4=O [Compound 95, (6S,8s,16R)-12-fluoro-16-methyl-5,6,7,8,16,17-hexahydro-4H,14H-6,8-methano-1,19-(metheno)[1,4]-oxazino[4,3-e]pyrazolo[3,4-h]-pyrido[2,3-b][1,5,7,11]oxatriaza-cyclotetradecin-4-one] | > 9.70 | 7.85
16 | 7.69 | C[C@@H]1COc2cn3ncc4c3nc2N1Cc1cc(F)cnc1OC[C@@H](C(F)F)NC4=O [Compound 97, (4R,13S)-13-(difluoromethyl)-8-fluoro-4-methyl-3,4,13,14-tetra-hydro-6H-18,1-(metheno)[1,4]-oxazino[3,4-i]pyrazolo[4,3-f]pyrido[3,2-l][1,4,8,10]oxatriaza-cyclotridecin-15(12H)-one] | > 9.70 | 7.70

Reference: patent publication US20210087206A1, “MACROCYCLIC KINASE INHIBITORS AND THEIR USE” (TURNING POINT THERAPEUTICS, INC., priority 2017, published 2021)
